In assay [1] the target is Ephrin type-B receptor 1 (Homo sapiens) (UniProt P54762). Briefly: Inhibition of EPHB1 (unknown origin) at 0.164 uM relative to control.
The target in assay [2] is Casein kinase I isoform epsilon (Homo sapiens) (UniProt P49674). Briefly: Inhibition of CK1-epsilon (unknown origin) at 0.164 uM relative to control.
For assay [3], the target named is Casein kinase I isoform gamma-2 (Homo sapiens) (UniProt P78368). Briefly: Inhibition of CK1-gamma2 (unknown origin) at 0.164 uM relative to control.
For assay [4], the target named is Death-associated protein kinase 3 (Homo sapiens) (UniProt O43293). Briefly: Inhibition of ZIPK (unknown origin) at 0.164 uM relative to control.
In assay [5] the target is Tyrosine-protein kinase Lck (Homo sapiens) (UniProt P06239). Briefly: Inhibition of LCK (unknown origin) at 0.164 uM relative to control.
Assay [6] concerns the target Hepatocyte growth factor receptor (Homo sapiens) (UniProt P08581). The assay can be described thus: Inhibition of MET (unknown origin) at 0.164 uM relative to control.
For assay [7], the target named is Tyrosine-protein kinase Fgr (Homo sapiens) (UniProt P09769). Briefly: Inhibition of FGR (unknown origin) at 0.164 uM relative to control.
In assay [8] the target is Tyrosine-protein kinase Fes/Fps (Homo sapiens) (UniProt P07332). Briefly: Inhibition of FES (unknown origin) at 0.164 uM relative to control.
In assay [9] the target is Interleukin-1 receptor-associated kinase 4 (Homo sapiens) (UniProt Q9NWZ3). The assay can be described thus: Inhibition of IRAK4 (unknown origin) at 0.164 uM relative to control.
Chain of Interleukin-1 receptor-associated kinase 4 (Homo sapiens) (Q9NWZ3 whole entry): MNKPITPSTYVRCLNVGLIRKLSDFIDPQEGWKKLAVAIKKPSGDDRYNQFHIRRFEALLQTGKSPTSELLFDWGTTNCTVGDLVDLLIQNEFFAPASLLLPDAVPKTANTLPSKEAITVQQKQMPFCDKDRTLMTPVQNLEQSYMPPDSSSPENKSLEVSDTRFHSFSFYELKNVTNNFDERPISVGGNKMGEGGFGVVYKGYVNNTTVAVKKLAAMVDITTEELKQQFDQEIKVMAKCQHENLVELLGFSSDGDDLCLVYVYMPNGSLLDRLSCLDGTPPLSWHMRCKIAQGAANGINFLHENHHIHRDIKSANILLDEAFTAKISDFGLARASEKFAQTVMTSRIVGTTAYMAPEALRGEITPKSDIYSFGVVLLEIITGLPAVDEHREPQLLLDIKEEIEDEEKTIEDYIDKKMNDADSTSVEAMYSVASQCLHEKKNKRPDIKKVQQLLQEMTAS
Assay [10] addresses Dual specificity tyrosine-phosphorylation-regulated kinase 3 (Homo sapiens) (UniProt O43781). The assay can be described thus: Inhibition of DYRK3 (unknown origin) at 0.164 uM relative to control.
Assay [11] has as its target Discoidin domain-containing receptor 2 (Homo sapiens) (UniProt Q16832). The assay can be described thus: Inhibition of DDR2 (unknown origin) at 0.164 uM relative to control.
Assay [12] deals with Mitogen-activated protein kinase 1 (Homo sapiens) (UniProt P28482). The assay can be described thus: Inhibition of Erk2 (unknown origin) at 0.45 uM relative to control.
Assay [13] concerns the target Ribosomal protein S6 kinase alpha-4 (Homo sapiens) (UniProt O75676). The assay can be described thus: Inhibition of MSK2 (unknown origin) at 0.45 uM relative to control.
The target in assay [14] is RAC-alpha serine/threonine-protein kinase (Homo sapiens) (UniProt P31749). Briefly: Inhibition of AKT1 (unknown origin) at 0.45 uM relative to control.
Assay [15] has as its target T1, Protein kinase C iota type (Homo sapiens) (UniProt P41743).
T1 sequence (whole entry): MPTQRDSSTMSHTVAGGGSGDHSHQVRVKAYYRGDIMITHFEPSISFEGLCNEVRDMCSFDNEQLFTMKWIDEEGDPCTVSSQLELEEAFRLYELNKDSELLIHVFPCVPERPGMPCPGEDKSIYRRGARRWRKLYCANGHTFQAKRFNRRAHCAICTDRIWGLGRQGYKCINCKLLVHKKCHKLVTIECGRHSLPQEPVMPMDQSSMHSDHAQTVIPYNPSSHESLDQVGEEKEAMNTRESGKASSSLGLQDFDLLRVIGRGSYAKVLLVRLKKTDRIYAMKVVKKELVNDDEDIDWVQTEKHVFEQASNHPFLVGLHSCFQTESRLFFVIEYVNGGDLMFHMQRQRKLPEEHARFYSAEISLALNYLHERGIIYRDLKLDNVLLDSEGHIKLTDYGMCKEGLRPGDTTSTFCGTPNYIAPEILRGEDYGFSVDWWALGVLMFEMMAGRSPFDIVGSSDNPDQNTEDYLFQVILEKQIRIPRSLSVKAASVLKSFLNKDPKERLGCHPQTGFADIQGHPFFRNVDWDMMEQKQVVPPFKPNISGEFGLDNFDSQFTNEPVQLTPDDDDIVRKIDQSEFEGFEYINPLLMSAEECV
Briefly: Inhibition of PKC-iota (unknown origin) at 0.45 uM relative to control.

The target in assay [16] is Ribosomal protein S6 kinase alpha-1 (Homo sapiens) (UniProt Q15418). The assay can be described thus: Inhibition of RSK1 (unknown origin) at 0.19 uM relative to control.
For assay [17], the target named is Glycogen synthase kinase-3 beta (Homo sapiens) (UniProt P49841). The assay can be described thus: Inhibition of GSK3b (unknown origin) at 0.19 uM relative to control.
The target of assay [18] is Serine/threonine-protein kinase Sgk1 (Homo sapiens) (UniProt O00141). Briefly: Inhibition of SGK1 (unknown origin) at 0.19 uM relative to control.
Assay [19] deals with Protein kinase C epsilon type (Homo sapiens) (UniProt Q02156). The assay can be described thus: Inhibition of PKC-epsilon (unknown origin) at 0.19 uM relative to control.
Assay [20] concerns the target Tyrosine-protein kinase HCK (Homo sapiens) (UniProt P08631). The assay can be described thus: Inhibition of Hck (unknown origin) at 0.19 uM relative to control.
The target in assay [21] is Interleukin-1 receptor-associated kinase 4 (Homo sapiens) (UniProt Q9NWZ3). The assay can be described thus: Inhibition of IRAK4 (unknown origin) at 0.19 uM relative to control.
Assay [22] concerns the target Ephrin type-A receptor 2 (Homo sapiens) (UniProt P29317). Briefly: Inhibition of EPHA2 (unknown origin) at 0.19 uM relative to control.
Assay [23] addresses Serine/threonine-protein kinase BRSK2 (Homo sapiens) (UniProt Q8IWQ3). Briefly: Inhibition of BRSK2 (unknown origin) at 0.19 uM relative to control.
Assay [24] addresses Inhibitor of nuclear factor kappa-B kinase subunit epsilon (Homo sapiens) (UniProt Q14164). The assay can be described thus: Inhibition of IKBKE (unknown origin) at 0.19 uM relative to control.
For assay [25], the target named is Serine/threonine-protein kinase pim-1 (Homo sapiens) (UniProt P11309). The assay can be described thus: Inhibition of PIM1 (unknown origin) at 0.19 uM relative to control.
The target of assay [26] is Calcium/calmodulin-dependent protein kinase type II subunit beta (Homo sapiens) (UniProt Q13554). The assay can be described thus: Inhibition of CaMK2-beta (unknown origin) at 0.19 uM relative to control.
For a further assay, the species on record is Homo sapiens. Briefly: Inhibition of PKA (unknown origin) at 0.19 uM relative to control.
Assay [27] has as its target Cyclin-dependent kinase 1/cyclin B1 (Homo sapiens) (UniProt P06493+P14635). The assay can be described thus: Inhibition of CDK1/CyclinB (unknown origin) at 0.19 uM relative to control. In kind it is protein-complex assay.
Assay [28] has as its target Serine/threonine-protein kinase Nek6 (Homo sapiens) (UniProt Q9HC98). Briefly: Inhibition of NEK6 (unknown origin) at 0.19 uM relative to control.
Assay [29] addresses NUAK family SNF1-like kinase 1 (Homo sapiens) (UniProt O60285). Briefly: Inhibition of NuaK1 (unknown origin) at 0.19 uM relative to control.
Assay [30] deals with Proto-oncogene tyrosine-protein kinase receptor Ret (Homo sapiens), P07949 [Y791F]. Briefly: Inhibition of RET Y791F mutant (unknown origin) at 0.19 uM relative to control.
Chain of Proto-oncogene tyrosine-protein kinase receptor Ret (Homo sapiens), P07949 [Y791F] (P07949 whole entry Y791F, canonical isoform): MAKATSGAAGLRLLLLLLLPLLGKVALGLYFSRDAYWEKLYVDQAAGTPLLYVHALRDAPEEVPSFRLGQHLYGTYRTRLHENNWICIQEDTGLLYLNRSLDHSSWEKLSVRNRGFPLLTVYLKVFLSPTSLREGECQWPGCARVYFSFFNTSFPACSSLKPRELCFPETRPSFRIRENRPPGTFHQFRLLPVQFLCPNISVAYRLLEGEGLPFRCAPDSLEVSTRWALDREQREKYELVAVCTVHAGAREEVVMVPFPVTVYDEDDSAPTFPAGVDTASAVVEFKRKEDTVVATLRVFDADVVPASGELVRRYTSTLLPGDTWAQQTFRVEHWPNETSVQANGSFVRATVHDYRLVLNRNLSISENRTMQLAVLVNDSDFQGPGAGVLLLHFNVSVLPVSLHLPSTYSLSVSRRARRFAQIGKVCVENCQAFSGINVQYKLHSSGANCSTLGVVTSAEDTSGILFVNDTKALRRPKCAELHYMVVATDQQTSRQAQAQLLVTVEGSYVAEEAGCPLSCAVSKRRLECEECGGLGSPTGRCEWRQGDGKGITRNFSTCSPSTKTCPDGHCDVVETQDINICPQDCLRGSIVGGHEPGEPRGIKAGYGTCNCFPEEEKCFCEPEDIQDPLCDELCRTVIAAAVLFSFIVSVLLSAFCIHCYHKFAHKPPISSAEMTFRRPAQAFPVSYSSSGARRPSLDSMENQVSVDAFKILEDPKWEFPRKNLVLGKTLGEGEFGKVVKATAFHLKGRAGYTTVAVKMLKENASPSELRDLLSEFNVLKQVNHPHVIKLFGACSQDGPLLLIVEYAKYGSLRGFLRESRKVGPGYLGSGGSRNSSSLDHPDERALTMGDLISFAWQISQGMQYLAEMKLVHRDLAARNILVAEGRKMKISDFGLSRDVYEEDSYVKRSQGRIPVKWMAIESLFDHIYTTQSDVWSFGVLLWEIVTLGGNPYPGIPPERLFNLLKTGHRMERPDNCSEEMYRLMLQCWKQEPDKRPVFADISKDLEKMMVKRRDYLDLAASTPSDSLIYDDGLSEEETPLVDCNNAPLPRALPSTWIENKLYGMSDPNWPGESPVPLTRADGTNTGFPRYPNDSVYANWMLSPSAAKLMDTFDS
The target of assay [31] is Casein kinase I isoform alpha (Homo sapiens) (UniProt P48729). The assay can be described thus: Inhibition of CSNK1A1 (unknown origin) at 0.19 uM relative to control.
Chain of Casein kinase I isoform alpha (Homo sapiens) (P48729 2-337 limits assumed): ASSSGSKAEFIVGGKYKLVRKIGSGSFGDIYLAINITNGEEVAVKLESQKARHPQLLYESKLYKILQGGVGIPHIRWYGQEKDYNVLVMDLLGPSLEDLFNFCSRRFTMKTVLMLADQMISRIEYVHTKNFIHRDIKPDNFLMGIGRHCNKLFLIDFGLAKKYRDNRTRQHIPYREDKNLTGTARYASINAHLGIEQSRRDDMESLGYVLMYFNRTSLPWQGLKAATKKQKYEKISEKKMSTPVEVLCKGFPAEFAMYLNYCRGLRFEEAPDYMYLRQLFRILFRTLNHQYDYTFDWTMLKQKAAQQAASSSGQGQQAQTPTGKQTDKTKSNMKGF

Broadly, the inhibition is the relative decrease from the control value, in per cent.

Chain of Dual specificity tyrosine-phosphorylation-regulated kinase 3 (Homo sapiens) (O43781 whole entry, the tested form may be a part): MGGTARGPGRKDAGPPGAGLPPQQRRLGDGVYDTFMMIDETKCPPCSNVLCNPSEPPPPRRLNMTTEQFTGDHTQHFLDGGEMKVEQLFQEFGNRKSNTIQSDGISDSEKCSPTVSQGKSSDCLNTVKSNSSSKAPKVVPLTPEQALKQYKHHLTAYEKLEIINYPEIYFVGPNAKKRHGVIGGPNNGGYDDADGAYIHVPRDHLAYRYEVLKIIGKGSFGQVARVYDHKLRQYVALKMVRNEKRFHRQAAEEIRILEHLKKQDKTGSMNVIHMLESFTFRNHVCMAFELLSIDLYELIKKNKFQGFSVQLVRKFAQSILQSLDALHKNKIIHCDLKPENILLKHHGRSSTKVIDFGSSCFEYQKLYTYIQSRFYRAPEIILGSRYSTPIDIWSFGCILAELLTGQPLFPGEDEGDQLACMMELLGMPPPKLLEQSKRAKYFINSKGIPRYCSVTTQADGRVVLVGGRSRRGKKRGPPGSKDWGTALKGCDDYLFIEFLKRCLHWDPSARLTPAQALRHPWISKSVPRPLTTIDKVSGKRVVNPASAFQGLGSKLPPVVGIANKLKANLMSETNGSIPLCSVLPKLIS
Chain of Serine/threonine-protein kinase BRSK2 (Homo sapiens) (Q8IWQ3 whole entry): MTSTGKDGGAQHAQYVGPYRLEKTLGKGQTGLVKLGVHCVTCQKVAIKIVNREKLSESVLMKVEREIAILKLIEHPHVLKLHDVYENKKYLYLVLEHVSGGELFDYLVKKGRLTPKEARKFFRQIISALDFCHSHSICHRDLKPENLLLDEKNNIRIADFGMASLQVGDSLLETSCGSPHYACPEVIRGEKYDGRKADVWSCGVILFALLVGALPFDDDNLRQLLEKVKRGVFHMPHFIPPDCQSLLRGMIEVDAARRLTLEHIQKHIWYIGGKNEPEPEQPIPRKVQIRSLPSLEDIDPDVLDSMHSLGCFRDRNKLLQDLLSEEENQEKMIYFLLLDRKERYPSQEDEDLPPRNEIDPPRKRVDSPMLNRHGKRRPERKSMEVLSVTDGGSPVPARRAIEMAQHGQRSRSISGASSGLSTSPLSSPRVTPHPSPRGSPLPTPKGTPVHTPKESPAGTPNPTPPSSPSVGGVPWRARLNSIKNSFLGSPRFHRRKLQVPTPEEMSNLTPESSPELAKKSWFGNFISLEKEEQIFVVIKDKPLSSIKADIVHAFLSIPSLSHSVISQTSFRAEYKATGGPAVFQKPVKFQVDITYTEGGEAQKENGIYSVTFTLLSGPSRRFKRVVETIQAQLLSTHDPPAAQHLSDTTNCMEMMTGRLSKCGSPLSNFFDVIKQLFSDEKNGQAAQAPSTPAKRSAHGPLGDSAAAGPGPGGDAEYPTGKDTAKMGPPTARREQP
Chain of Ephrin type-A receptor 2 (Homo sapiens) (P29317 whole entry): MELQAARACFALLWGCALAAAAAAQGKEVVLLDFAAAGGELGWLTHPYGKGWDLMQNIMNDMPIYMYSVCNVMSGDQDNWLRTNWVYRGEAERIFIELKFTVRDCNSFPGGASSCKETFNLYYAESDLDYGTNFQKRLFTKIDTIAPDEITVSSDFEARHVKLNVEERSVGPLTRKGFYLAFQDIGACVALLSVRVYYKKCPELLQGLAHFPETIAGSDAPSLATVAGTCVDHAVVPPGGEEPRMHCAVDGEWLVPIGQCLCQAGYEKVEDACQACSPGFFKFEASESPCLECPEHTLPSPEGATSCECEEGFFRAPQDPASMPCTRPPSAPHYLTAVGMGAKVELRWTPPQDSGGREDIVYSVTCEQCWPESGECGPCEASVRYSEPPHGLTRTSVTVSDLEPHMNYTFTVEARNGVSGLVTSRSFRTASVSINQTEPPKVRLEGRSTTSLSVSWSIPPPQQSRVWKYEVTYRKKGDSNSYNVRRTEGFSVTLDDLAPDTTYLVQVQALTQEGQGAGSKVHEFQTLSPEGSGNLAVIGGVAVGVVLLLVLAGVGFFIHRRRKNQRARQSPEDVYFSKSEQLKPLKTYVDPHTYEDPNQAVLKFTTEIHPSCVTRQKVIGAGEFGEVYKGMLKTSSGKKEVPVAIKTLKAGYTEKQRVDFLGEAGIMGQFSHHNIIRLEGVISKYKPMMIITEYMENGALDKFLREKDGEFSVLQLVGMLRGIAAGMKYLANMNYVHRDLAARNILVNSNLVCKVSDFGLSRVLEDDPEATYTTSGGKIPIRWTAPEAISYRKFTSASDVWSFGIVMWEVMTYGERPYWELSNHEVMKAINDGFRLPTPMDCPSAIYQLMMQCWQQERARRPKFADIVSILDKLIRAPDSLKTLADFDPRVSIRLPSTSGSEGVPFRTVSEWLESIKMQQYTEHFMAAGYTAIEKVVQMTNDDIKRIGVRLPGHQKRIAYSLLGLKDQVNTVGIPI
Chain of Tyrosine-protein kinase HCK (Homo sapiens) (P08631 2-526 limits assumed): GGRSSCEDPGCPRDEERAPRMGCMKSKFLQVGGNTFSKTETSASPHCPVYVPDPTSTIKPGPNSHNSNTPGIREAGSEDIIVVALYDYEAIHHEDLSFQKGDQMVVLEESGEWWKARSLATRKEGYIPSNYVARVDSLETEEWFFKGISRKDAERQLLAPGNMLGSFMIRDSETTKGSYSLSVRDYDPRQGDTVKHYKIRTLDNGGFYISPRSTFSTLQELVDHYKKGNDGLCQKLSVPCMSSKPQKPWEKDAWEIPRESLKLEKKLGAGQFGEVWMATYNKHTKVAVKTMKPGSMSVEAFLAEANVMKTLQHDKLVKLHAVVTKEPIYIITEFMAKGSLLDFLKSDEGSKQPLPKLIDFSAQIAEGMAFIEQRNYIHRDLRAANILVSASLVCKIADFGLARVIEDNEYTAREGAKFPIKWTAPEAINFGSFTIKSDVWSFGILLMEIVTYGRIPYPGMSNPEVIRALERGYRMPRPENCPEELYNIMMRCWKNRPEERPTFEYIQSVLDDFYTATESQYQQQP
Chain of Serine/threonine-protein kinase Nek6 (Homo sapiens) (Q9HC98 whole entry): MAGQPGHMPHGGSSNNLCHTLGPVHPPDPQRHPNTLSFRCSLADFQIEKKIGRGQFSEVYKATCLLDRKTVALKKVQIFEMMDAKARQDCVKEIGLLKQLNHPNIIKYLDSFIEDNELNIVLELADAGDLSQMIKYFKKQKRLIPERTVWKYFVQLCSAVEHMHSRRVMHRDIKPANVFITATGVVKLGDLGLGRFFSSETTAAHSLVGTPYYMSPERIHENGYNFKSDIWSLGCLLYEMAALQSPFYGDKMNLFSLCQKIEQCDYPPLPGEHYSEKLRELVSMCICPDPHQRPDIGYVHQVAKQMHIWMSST

For `COC(=O)Nc1cc(-c2c(C3CC3)n[nH]c2C)cc2[nH]ncc12`, the inhibition is 3% in [1]; 2.7% in assay [2]; 2.3% in [3]; -1% in assay [4]; 17.3% in assay [5]; 0% in [6]. Also, the inhibition in assay [7] is -4.3%; in [8], 11.7%; in [9], -7.7%; in [10], 5.3%; in [11], 1.7%.

As to `Cc1n[nH]c(C)c1-c1ccc2c(NC(=O)c3ccc(N4CCN(C)CC4)cc3)n[nH]c2c1`, the inhibition in assay [12] is -0.3%; in assay [13], -3.3%; in assay [14] it was -1.7%; in [15] it was -6.7%.

Turning to `Cc1[nH]nc(C2CC2)c1-c1ccc2c(-c3ccc(N4CCN(C)CC4)nc3)n[nH]c2c1`, the inhibition amounted to 4.7% in assay [16]; 3.3% in assay [17]; 6.3% in assay [18]; 3% in assay [19]; 6.7% in assay [20]; 4.3% in assay [21]. Moreover, the inhibition in assay [22] is -0.3%; in assay [23], 6.3%; in assay [24], 1%; in [25], -1.3%; in assay [26], 1.7%; in the assay filed under Homo sapiens, 5.7%. For the same molecule, the inhibition is -2% in [27]; -1% in assay [28]; 2.3% in assay [29]; 40% in [30]; 0.7% in assay [31].

Values taken from ChEMBL document CHEMBL4118098, “Discovery of DS28120313 as a potent orally active hepcidin production inhibitor: Design and optimization of novel 4,6-disubstituted indazole derivatives” (Bioorg Med Chem Lett, 2017).
